Experimental data as given in US20230029570A1, “Bacillus Strain for Applications in Agriculture, Livestock Health and Environmental Protection” (Locus IP Company, LLC, priority 2020, published 2023).

Columns and labels:
E. coli = assay: Reduction in optical density at 600 nm of E. coli cultures treated with cleaning compositions; assay type: cell-based; details: 250 ppm
Experimental: The lipopeptide mixture produced by B. amy can be used in environmentally-friendly cleaning compositions and to enhance antimicrobial activity of other biosurfactants. Cleaning compositions were tested for their ability to control Gram-negative E. coli. Reduction in optical density at 600 nm (OD) was measured for cultures treated with each of the following compositions: […]

Staphylococcus sp. = assay: Reduction in optical density at 600 nm of Staphylococcus sp. cultures treated with cleaning compositions; assay type: cell-based
Experimental: Cleaning compositions according to embodiments of the subject invention were also tested for their ability to control a Gram-positive Staphylococcus sp. Reduction in optical density at 600 nm (OD) was measured for cultures treated with each of the following compositions: […]

Substance	OD600 % reduction after 2 hours (E. coli) [%]	OD600 % reduction after 2 hours (Staphylococcus sp.; 50 ppm) [%]	OD600 % reduction after 2 hours (Staphylococcus sp.; 100 ppm) [%]	OD600 % reduction after 2 hours (Staphylococcus sp.; 250 ppm) [%]
linear SLP isopropyl ester	86.4	91.5		
linear SLP ethyl ester	89.8		98.3	
linear SLP butyl ester	91.5			88.1
